Source: patent US7666996B2, “Casein derived peptides and uses thereof” (priority 2000, dated 2010)

Key:
[1] = tested on: murine bone marrow progenitor cells; experiment: CFU-GM colony formation with IL-3 and G-CSF, murine bone marrow; assay type: cell-based
Protocol: Cells were scored in the macroscopic colonies grown from murine bone marrow cells prepared similarly to the CFU-GEMM colonies previously described. Cells were incubated with hematopoietic factors cytokine (IL-3) and colony stimulating factor (G-CSF), and 25 μg or more of synthetic peptides derived from casein (J), representing amino acids 1-22 of α-S1 casein, or 30-4, representing amino acids 1-6 of α-S1 casein, for 14 days, individually or in combination. The stimulation of colony formation (CFU) is expressed as the number of myeloid colonies in 10^5 plated MNCs.
Synthetic peptides derived from αS1-casein stimulate Granulopoietic (GM) cell proliferation in CFU-GM: As mentioned hereinabove, formation and expansion of CFU-GM (Granulocyte and Macrophage) colonies, and CFU-GEMM (Granulocyte, Erythroid, Macrophage and Megakaryocyte) colonies constitute one of the early events in the differentiation of hematopoietic progenitor cells in the bone marrow.

[2] = tested on: irradiated, bone marrow transplanted mice; experiment: Leukocyte and platelet reconstitution in bone marrow transplant recipient mice; assay type: in vivo; details: 800 cGy; 1.0 mg i.p. daily, days 4-7
Protocol: Leukocyte and platelet reconstitution in bone marrow transplant recipient Mice: BALB/c mice were sub-lethally irradiated at a source to skin distance of 70 cm, dosage of 50 cGy per minute, for a total of 600 cGy. The irradiated mice were […] casein, synthetic peptides derived from casein (13-26 amino acids, see Table 3 above), or human serum albumin (controls), following a double-blinded protocol. Leukocyte reconstitution was determined according to cell count in peripheral blood collected at indicated intervals from 6 to 12 days post treatment. Platelet reconstitution was determined by cell count in blood collected from the retro orbital plexus, into EDTA-containing vials, at indicated intervals from day 6 to day 15 post treatment. […]
In a third series of experiments, the mice were irradiated (800 cGy), reconstituted and injected intraperitoneally with 1.0 mg synthetic peptides derived from casein (peptides 3a and 4P, representing the first 6 and 12 amino acids of the N terminus of αS1 casein, respectively—see Table 3 above) daily, on days 4, 5, 6 and 7 post-transplantation. Platelet reconstitution was assayed at 10 and 12 days post-transplantation.
In a fourth series of experiments, F1 mice were irradiated (750 cGy), reconstituted with syngeneic bone marrow, and injected intravenously 24 hours later with 1 mg per mouse of synthetic peptides derived from casein representing amino acids 1-22 of the N terminus of αS1 casein. In addition, 2 (two) groups of mice were treated each with a natural fraction of αS1 casein position 1-23, and a fraction of peptides derived from natural κ-casein, representing amino acid coordinates 106-169 of κ-casein (SEQ ID NO: 27). WBC counts were conducted on days 5, 7, 10 and 12 post-transplantation.

[3] = tested on: HIV-1 (CEM lymphocyte cells); experiment: Inhibition of HIV-1 infection of CEM lymphocytes; assay type: cell-based; details: for Lymphocyte cell numbers: day 7; for HIV-1 infection level, HIV-P24 antigen: control 0.52
Protocol: Peptides: Peptides [either peptides derived from natural casein or synthetic peptides derived from casein (2-26 amino acids in length, see table 3)] supplied as lyophilized powder were resuspended in RPMI complete medium and added to cell cultures at a final concentrations of 50 to 1000 μg per ml.
Cells: Several types of freshly isolated human cells (primary cells) and cell lines are known to be susceptible to in vitro HIV-1 infection, although essentially any cell displaying even low surface levels of the CD4 molecule can be considered a potential target for HIV-1 infection. Two commonly used human cell lines which are highly sensitive for HIV-1 infection were chosen, CEM and Sup-T1.
CEM is a human T4-lymphoblastoid cell line initially derived by G. E. Foley et al. [(1965), Cancer 18:522] from peripheral blood buffy coat of a person with acute lymphoblastic leukemia. These cells were continuously maintained in suspension in medium, and have been used widely for analysis of infectivity, antiviral agents and neutralizing antibodies.
Virus: The HIV virus strain employed was HIV-1IIIB, originally designated HTLV-IIIB. Concentrated culture fluids of peripheral blood from several patients with AIDS or related diseases were used to establish a permanent productive infection in H-9 cells. This subtype B virus has high capacity to replicate in human T-cell lines. Viral titer was 5.38 ng per ml in stock solution.
HIV-1 P^24 antigen capture assay: An HIV-1 P^24 Antigen capture assay kit employed was designed to quantitate the HIV-1 P^24 core antigen, which is proportionally related to the degree of viral production in cells. This kit was purchased from the AIDS Vaccine program of the SAIC-NCI-Frederick Cancer Research Institute, P.O. Box B, Frederick, Md. 21702, USA and included 96 well plates coated with monoclonal antibody to HIV-1 P^24, primary antibody-rabbit anti-HIV P^24 serum, secondary antibody-Goat anti-rabbit-IgG (H+L) peroxidase conjugated antibody, TMB peroxidase substrate system and lysed HIV-1 P^24 standard. The HIV-1 P^24 antigen capture assay was analyzed by Organon-Technica ELISA reader at 450 nm with a reference at 650 nm.
HIV-1 P^24 antigen capture ELISA: HIV infection was measured with an indirect enzyme immunoassay which detects HIV-1 P^24 core antigens in tissue culture media. Tissue culture supernatant was reacted with primary rabbit anti-HIV-1 P^24 antigen and visualized by peroxidase conjugated goat anti rabbit IgG. The reaction was terminated by adding 4N H2SO4, wherein the intensity of the color developed is proportional to the amount of HIV-1 antigen present in the tissue culture supernatant.
HIV infection of human cultured CD4 cells: For longer incubations, the cells (CEM, Sup-T1) were preincubated with several increasing concentrations of peptides derived from natural casein (50-1000 μg per ml) or synthetic peptides derived from casein (10-500 μg per ml) for 24 (for synthetic and natural peptides) and 48 (only for natural peptides) hours and HIV-1IIIB (45 pg per ml final concentration) was added to each well thereafter. For the shorter incubations (3 hours), HIV-1IIIB was preincubated with the peptides for 3 hours and then added to cells (5000 cells/well) in tissue culture plates. Controls were IF (Infected, cells cultured with HIV-1 and without peptides), UIF (Uninfected, cells cultured without HIV-1 and without peptides) and UIF +Ch (Uninfected+peptides derived from natural casein, cells cultured in the presence of peptides derived from natural casein {50-1000 μg per ml}) to test the effect of peptides derived from natural casein and synthetic peptides derived from casein on cell viability and growth. Cells were counted for viability and proliferation rate on day 7, 10 and day 14 post infection (the day of P^24 antigen culture supernatant harvest). Cells and tissue culture supernatants (media) were harvested and lysed immediately in 1/10 volume of 10% Triton X-100. […]

[4] = tested on: Non-Obese Diabetic (NOD) mice; experiment: Glucosuria in Non-Obese Diabetic (NOD) mice; assay type: in vivo; details: additional series, assayed at week 16; data not shown
Protocol: Juvenile (Type I, IDDM) diabetes in Non-Obese Diabetic (NOD) mice:
Peptides derived from natural casein: NOD mice are a commonly used model for research of autoimmune disease and human Juvenile Diabetes. Six week old female NOD mice received either one or two injections per week of 100 μg of peptides derived from natural casein, for a total of 5 or 10 treatments. Control mice received no treatment. The severity of disease was determined according to glucosuria, which was measured using Combi test sticks [Gross, D. J. et al (1994), Diabetology, 37:1195]. Results were expressed as the percent of glucosuria-free mice in each sample over a 365-day period.
Synthetic peptides derived from casein: In another experiment, 6 week old female NOD mice received one injection per week of 100 μg of Synthetic peptides derived from casein for a total of 5 treatments. Control mice received no treatment. Results were expressed as the number of healthy mice in the various treated groups.

[5] = tested on: human Peripheral Blood Stem Cells (K562 target cells); experiment: Natural Killer (NK) cell activity in cultured human PBSC; assay type: cell-based
Protocol: From human Peripheral Blood Stem Cells (PBSC): PBSC of G-CSF treated subjects were separated on a FICOLL gradient, washed twice with RPMI-1640 medium containing 10% FCS and glutamine and seeded into 1.5 ml wells with or without peptides derived from natural casein or synthetic peptides derived from casein, as indicated, (0-500 μg per ml). Following two days incubation the cells were assayed for Natural Killer activity by measuring radioactivity released from ^35S-labeled K562 target cells (NEG-709A, 185.00 MBq, […] EASYTAGth Methionine, L-[^35S] 43.48 TBq per mmol, 1175.0 Ci per mmol, 0.488 ml, Boston USA). Two concentrations of effector cells (2.5×10^5 and 5×10^5 cells per well) were incubated with 5×10^3 target cells per well (effector:target cell ratios of 50:1 and 100:1, respectively) in U-bottomed 96 well tissue culture plates. The cells were incubated for 5 hours at 37° C. in 5% CO2, 95% air and precipitated by 5 minutes centrifugation at 1000 rpm. ^35S release was measured in 50 μl samples of the supernatant liquid.

[6] = tested on: murine bone marrow progenitor cells; experiment: CFU-GEMM colonies from murine bone marrow cells, differential counts; assay type: cell-based; details: 53% in controls
Protocol: Proliferation of megakaryocytes in multipotential colonies (CFU-GEMM) from murine bone marrow cells: Primary bone marrow cells (1×10^5 per ml) from 8-12 week-old C3H/HeJ […], 95% air, at 37° C. The medium, appropriate for the growth of multipotential colonies (CFU-GEMM), contained 1% BSA (Sigma), 10^−4 M thioglycerol (Sigma), 2.8×10^−4 M human transferrin (TF, Biological industries, Israel), 10% WEHI-CM as a source of IL-3 and 2 units per ml erythropoietin (rhEPO, R & D Systems, Minneapolis). […] They were picked with a micropipette, cytocentrifuged and stained with May-Grunwald-Giemsa for differential counts. At least 700 cells were counted for each preparation.
Proliferation of Dendritic cells in CFU-GEMM: Multipotent (CFU-GEMM) colonies grown from primary bone marrow cells as described for the assay of megakaryocyte proliferation above were collected, stained and counted for dendritic cells. At least 700 cells were counted for each preparation.
Proliferation of Plasma cells in CFU-GEMM: Multipotent (CFU-GEMM) colonies grown from primary bone marrow cells as described for the assay of megakaryocyte proliferation above were collected, stained and counted for plasma cells. At least 700 cells were counted for each preparation.
Proliferation of Macrophage Cells in CFU-GEMM: Multipotent (CFU-GEMM) colonies grown from primary bone marrow cells as described for the assay of megakaryocyte proliferation above were collected, stained and counted for macrophage cells. At least 700 cells were counted for each preparation.
Proliferation of Red Blood Cells in CFU-GEMM: Multipotent (CFU-GEMM) colonies grown from primary bone marrow cells as described for the assay of megakaryocyte proliferation above were collected, stained and counted for red blood cells. At least 700 cells were counted for each preparation.
Proliferation of Polymorphonuclear Cells (PMN) in CFU-GEMM: Multipotent (CFU-GEMM) colonies grown from primary bone marrow cells as described for the assay of megakaryocyte proliferation above were collected, stained and counted for polymorphonuclear cells. […]

Substance | myelocyte formation with G-CSF and IL-3 (in words) ([1]; 25 μg or more, 14 days) | increase in proliferation of granulocytes ([1]; in the presence of G-CSF) [%] | increase in platelet counts over control, 12 days post transplantation [2] [%] | platelet counts, 12 days post transplantation [2] [mL⁻¹] | Cell counts ([3]; 25 μg per ml, virus pre-treated 3 hours, infected control 1.06×10^6) | Cell numbers ([3]; 250 μg per ml, virus pre-treated 3 hours, infected control 1.06×10^6) | HIV-P24 antigen, viral particles vs infected control (in words) ([3]; virus preincubated 3 hours, 7 days post infection) | prevention of onset of glucosuria (in words) [4] | target cell lysis relative to untreated controls ([5]; PBS cells from 5 donors with hematopoietic disease, 25-250 μg/ml) | effect on NK activity in PBSC from healthy human donors ([5]; healthy donors) | Lymphocyte cell numbers ([3]; 100 μg per ml, infected control 1.06×10^6) | HIV-1 infection level, HIV-P24 antigen ([3]; 100 μg/ml, 7 days post infection) [ng P^24 Antigen/ml] | Lymphocyte cell numbers ([3]; 500 μg per ml, infected control 1.06×10^6) | HIV-1 infection level, HIV-P24 antigen ([3]; 500 μg/ml, 7 days post infection) [ng P^24 Antigen/ml] | red blood cells, % of total cell count [6] [%]
RPKHPI [4P, synthetic peptide, N-terminal 6 amino acids of αS1 casein] | synergistic increase | 18 | 29 | 872000 | 1.26×10^6 | 1.59×10^6 | dose dependent reduction |  |  |  |  |  |  |  | 
RPK [1P, synthetic peptide, N-terminal 3 amino acids of αS1 casein] |  |  |  |  |  |  |  | effectively prevented the onset of glucosuria | from 2- to greater then 8-fold | No significant effect | 1.29×10^6 | 0.17 | 2.01×10^6 | 0.14 | 
RPKH [2P, synthetic peptide, N-terminal 4 amino acids of αS1 casein] |  |  |  |  |  |  |  | effectively prevented the onset of glucosuria |  |  |  |  |  |  | 71
